In patent US11160817B2, “Nutritional compositions comprising neuroprotective dietary oligosaccharides” (ABBOTT LABORATORIES, priority 2012, dated 2021):
Read-outs that look alike come from different tables or passages of the source. Marks after values point to notes of the source that are not given here.

What was measured:
[1] = system: fecal samples from breast-fed infants (intestinal flora); assay: Anaerobic fermentation of HMOs with fecal inocula of breast-fed infants, agmatine in supernatant by GC/MS and LC/MS/MS; assay type: cell-based, human; details: for Increase of agmatine, HMO/blank (relative ratio of agmatine compared to the blank): breast fed infants, fermentation culture 37° C.
Description: (§1) Fecal samples from eight human babies, one group of four breast-fed and the other group of four formula-fed, were used as inocula for anaerobic fermentation (37° C.) of lacto-N-neotetraose (LNnT) and 2′-fucosyllactose. Supernatants from the fermentation cultures were sampled at 0 hr, 3 hr, and 6 hr. A culture without addition of HMOs served as a control. A sample of the fermentation medium (blank), which constituted approximately 90% of the starting culture volume, was also analyzed.
(§2) Samples were extracted and split into equal parts for analysis on GC/MS and LC/MS/MS platforms. Agmatine ions were identified in chromatograms, and peak area was integrated for quantitative analysis.

[2] = system: fecal samples from formula-fed infants (intestinal flora); assay: Anaerobic fermentation of HMOs with fecal inocula of formula-fed infants, agmatine in supernatant by GC/MS and LC/MS/MS; assay type: cell-based, human; details: for Increase of agmatine, HMO/blank (relative ratio of agmatine compared to the blank): formula fed infants, fermentation culture 37° C.
Description: as §1, §2

[3] = mice, peripheral injection at 50 and 300 mg/kg; cited from earlier work
[4] = non-human primates, peripheral injection at 50 and 300 mg/kg; cited from earlier work
[5] = system: NMDA subclass of glutamate receptors; details: cited from earlier work
[6] = system: nitric oxide synthase (NOS), all isoforms; details: cited from earlier work

Row | Structure (SMILES) | Increase of agmatine, HMO/blank (relative ratio of agmatine compared to the blank) ([1]; 0 h) | Increase of agmatine, HMO/blank (relative ratio of agmatine compared to the blank) ([1]; 3 h) | Increase of agmatine, HMO/blank (relative ratio of agmatine compared to the blank) ([1]; 6 h) | agmatine relative to a blank (in words) ([1]; fecal samples from breast-fed infants (BF)) | agmatine relative to a blank (in words) ([2]; fecal samples from formula-fed infants (FF)) | Increase of agmatine, HMO/blank (relative ratio of agmatine compared to the blank) ([2]; 0 h) | Increase of agmatine, HMO/blank (relative ratio of agmatine compared to the blank) ([2]; 3 h) | Increase of agmatine, HMO/blank (relative ratio of agmatine compared to the blank) ([2]; 6 h) | brain agmatine concentrations [3] | brain agmatine concentrations [4] | affinity for the NMDA subclass of glutamate receptors [5] | inhibition of NOS isoforms [6] | nitric oxide production [6]
1 | CC(=O)N[C@H]1[C@H](O[C@H]2[C@@H](O)[C@@H](CO)O[C@@H](O[C@H]3[C@H](O)[C@@H](O)C(O)O[C@@H]3CO)[C@@H]2O)O[C@H](CO)[C@@H](O[C@@H]2O[C@H](CO)[C@H](O)[C@H](O)[C@H]2O)[C@@H]1O (mixture of isomers) [LNnT, lacto-N-neotetraose] | 9.52^a | 34.4 | 1.59 | dramatic increases in agmatine | dramatic increases in agmatine | 2.12 | 61.77^a | 75.02^a | – | – | – | – | –
2 | N=C(N)NCCCCN [agmatine] | – | – | – | – | – | – | – | – | significant increases in brain agmatine concentrations | significant increases in brain agmatine concentrations | modest affinity | inhibit all isoforms of NOS | suppress nitric oxide production
